{
  "source": "patent US8389572B2",
  "about": "“Therapeutic delivery of carbon monoxide” (hemoCORM Limited, priority 2006, dated 2013)",
  "origin": "cited, not measured here",
  "conditions": "disclosed in WO 02/092075 and WO 2004/045598",
  "data": [
    {"smiles": "F[P-](F)(F)(F)(F)F.O=[C]=[Fe](=[C]=O)(=[C]=O)[CH]1C=CC=C1", "note": "[[CpFe(CO)3]PF6]", "values": [
      {"measurement": "precipitate during release of CO", "result": "produced a precipitate during release of CO"},
      {"measurement": "solubility", "setting": "solvent", "result": "soluble in dimethylsulphoxide (DMSO)"}
    ]}
  ]
}
